The values below are quoted from earlier work in patent publication US20150119272A1, “DOSE-RESPONSE MEDICAL OUTCOME MODEL PREDICTOR SYSTEM AND METHOD” (ROYAL COLLEGE OF SURGEONS IN IRELAND, priority 2012, published 2015).

Molecules are shown by their SMILES.

One data set addresses Bcl-(X)L (Homo sapiens, UniProt Q07817). The note with it: binding to Bcl-(X)L; taken from literature (Lessene et al. 2008).
The next data set addresses Mcl-1 (Homo sapiens, UniProt Q07820). The note with it: binding to Mcl-1; taken from literature (Lessene et al. 2008).

Chain of Bcl-(X)L (Q07817 whole entry, species assumed): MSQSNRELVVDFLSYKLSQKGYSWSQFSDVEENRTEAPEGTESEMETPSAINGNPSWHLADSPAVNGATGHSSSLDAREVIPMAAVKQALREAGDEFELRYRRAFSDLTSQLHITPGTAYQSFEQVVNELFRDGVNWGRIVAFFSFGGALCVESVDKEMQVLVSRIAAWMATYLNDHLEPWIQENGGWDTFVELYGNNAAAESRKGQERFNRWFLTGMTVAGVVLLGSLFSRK
Chain of Mcl-1 (Q07820 whole entry, species assumed): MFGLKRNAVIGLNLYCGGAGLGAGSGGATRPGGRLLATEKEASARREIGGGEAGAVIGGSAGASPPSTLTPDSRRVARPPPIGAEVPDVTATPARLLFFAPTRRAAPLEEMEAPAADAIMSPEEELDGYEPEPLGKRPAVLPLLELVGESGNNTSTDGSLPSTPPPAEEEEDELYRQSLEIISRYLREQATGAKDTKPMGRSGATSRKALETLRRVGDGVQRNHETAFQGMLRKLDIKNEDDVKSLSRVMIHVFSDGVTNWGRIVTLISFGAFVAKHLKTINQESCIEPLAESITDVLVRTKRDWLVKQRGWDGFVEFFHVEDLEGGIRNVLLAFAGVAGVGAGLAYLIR

In the case of `Cc1cc2c(C(C)C)c(O)c(O)c(C=O)c2c(O)c1-c1c(C)cc2c(C(C)C)c(O)c(O)c(C=O)c2c1O` [Gossypol], the Kd (commonly the constant that tells how readily two partners part at equilibrium) is 660 nM on Bcl-(X)L and 25 nM on Mcl-1.
